Experimental data reported in US6762176B1, “2-aminopyridine derivatives, their use as medicines and pharmaceutical compositions containing them” (Societe de Consells de Recherches et D'Applications …, priority 1998, dated 2004).
Counter-ions that a name gives are not always drawn.

Row | Compound | melting point
1 | Cc1cc(N)nc(CCCCNC(=O)C2(C)CCc3c(C)c(O)c(C)c(C)c3O2)c1.O=C(O)/C=C/C(=O)O (centres unmarked) | 131 to 136 °C
2 | Cc1c(C)c2c(c(C)c1O)CCC(C)(C(=O)N1CCN(CCC#Cc3ccc(N)nc3)CC1)O2.Cl (centres unmarked) | 210 to 212 °C
3 | Cc1cc(N)nc(CCCCNCc2ccc3c(c2)OCO3)c1.O=C(O)/C=C/C(=O)O [Example 29, N-[4-(6-amino-4-methyl-2-pyridinyl)butyl]-N-(1,3-benzodioxole-5-ylmethyl)amine fumarate] | 224 to 226 °C
4 | Cc1cc(N)nc(CCCCNC/C=C/c2ccccc2)c1.O=C(O)/C=C/C(=O)O [Example 30, N-[4-(6-amino-4-methyl-2-pyridinyl)butyl]-N-[(E)-3-phenyl-2-propenyl]amine fumarate] | 163 to 165 °C
5 | Cc1cc(N)nc(CCCCNC(=O)/C=C/c2ccc3c(c2)OCO3)c1.O=C(O)/C=C/C(=O)O [Example 31, (E)-N-[4-(6-amino-4-methyl-2-pyridinyl)butyl]-3-(1,3-benzodioxole-5-yl)-2-propenamide fumarate] | 111 to 113 °C
6 | Cc1cc(N)nc(CCCCNC(=O)c2ccc3c(c2)OCO3)c1.Cl [Example 23, N-[(6-amino-4-methyl-2-pyridinyl)butyl]-1,3-benzodioxole-5-carboxamide hydrochloride] | 176 to 178 °C
7 | COc1cc(C=CCNCCCCc2cc(C)cc(N)n2)ccc1O (as salt: hydrochloride) [Example 26, 6-amino-N-[13-(4-hydroxy-3-metboxy-phenyl)-2-propenyl]4-methyl-2-pyridinebutanamine hydrochloride] | 60 to 62 °C
8 | Cc1c(C)c2c(c(C)c1O)CCC(C)(C(=O)N1CCN(CCCCc3ccc(N)nc3)CC1)O2.Cl (centres unmarked) | 221 to 223 °C
